Experiments:
Ovariectomized rats = assay: Vaginal keratinization test on ovariectomized rats (Example C.2); type: in vivo; conditions: estradiol undecylate induced keratinization, per os once daily on days 1-3, active dose = 50% of rats show complete suppression
Summary of the method: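 Value is the lowest oral dose (mg/kg) at which half of tested rats show complete suppression of estradiol undecylate-induced vaginal keratinization by histology. Ovariectomized rats received 100 μg/100 g estradiol undecylate s.c., then compound or PEG 200 vehicle p.o. daily for three days; sacrifice one day later.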

[1] = tested on: metabolism of retinoic acid in human breast cancer cells; assay: Inhibition of retinoic acid (RA) metabolism (Example C.1); type: cell-based; conditions: MCF-7 human breast cancer cells, 3H-RA as substrate, concentration needed to reduce the amount of metabolites to 50% of the control
Summary of the method: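 Test compound (in 1% DMSO) added at several concentrations to MCF-7 cell suspensions fed ³H-RA, after RA induction of metabolism one day earlier. Scintillation counting of the separated polar metabolite fraction; IC50 = concentration giving 50% of control metabolite level.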

Row | SMILES | LAD (lowest active dose) (Ovariectomized rats) | IC50 [1] | minimal effective dose (Ovariectomized rats; Rattus norvegicus, po, read-out: LAD (lowest active dose)) | IC50 ([1]; MCF7)
1 | CC(C)C(c1ccc(NC(=O)Cc2ccccc2Cl)cc1)n1ccnc1 (stereo not shown) [Compound 664] | 5.00 mg/kg | 1.56 nM |  | 
2 | CC(C)C(c1ccc(NC(=O)Cc2ccc(O)cc2)cc1)n1ccnc1 (stereo not shown) [Compound 668] | 5.00 mg/kg | 3.16 nM |  | 
3 | CC(C)C(c1ccc(NC(=O)C(O)c2ccc(Cl)cc2)cc1)n1ccnc1 (stereo not shown) [Compound 669] | 5.00 mg/kg | 8.66 nM |  | 
4 | O=C(C=C(c1ccccc1)c1ccccc1)Nc1ccc(C(c2ccc(Cl)cc2)c2ccccn2)cc1 (stereo not shown) [Compound 680] | >20.00 mg/kg | 12.1 nM |  | 
5 | C/C(=C\c1ccccc1)C(=O)Nc1ccc(C(c2ccccn2)C(C)C)cc1 (stereo not shown) [Compound 682] | >20.00 mg/kg | > 100 nM |  | 
6 | Cc1nccn1C(c1ccc(NC(=O)Cc2ccc(Cl)cc2)cc1)C(C)C (stereo not shown) [Compound 695] | >10.00 mg/kg | > 100 nM |  | 
7 | CC(C)C(c1ccc(NC(N)=Nc2ccccc2)cc1)n1ccnc1 (stereo not shown) [Compound 743] | >10.00 mg/kg | 11 nM |  | 
8 | CC(C)C(c1ccc(NC(=O)Cc2ccc(Cl)cc2)cc1)(C(C)C)n1cncn1 [Compound 745] | >5.00 mg/kg | 3.87 nM |  | 
9 | CC(C)C(c1ccc(NC(=O)Nc2cccc(F)c2)cc1)(C(C)C)n1ccnc1 [Compound 746] | >5.00 mg/kg | > 100 nM |  | 
10 | CC(=Cc1ccccc1)C(=O)Nc1ccc(C(C(C)C)n2cnnc2)cc1 (stereo not shown) [Compound 749] | >20.00 mg/kg | 126 nM |  | 
11 | C/C(=C\c1ccccc1)C(=O)Nc1ccc(C(C(C)C)(C(C)C)n2ccnc2)cc1 [Compound 751] | 10.00 mg/kg | 67 nM |  | 
12 | CC(=Cc1ccccc1)C(=O)Nc1ccc(C(C)(C)n2ccnc2)cc1 [Compound 753] | >10.00 mg/kg | > 100 nM |  | 
13 | CCC(c1ccc(NC(=O)C(C)=Cc2ccccc2)cc1)(C(C)C)n1ccnc1 (stereo not shown) [Compound 758] | >5.00 mg/kg | 1.88 nM |  | 
14 | COc1ccc(CC(=O)Nc2ccc(C(C(C)C)(C(C)C)n3ccnc3)cc2)cc1OC [Compound 762] | >5.00 mg/kg | 40.8 nM |  | 
15 | CC(C)C(c1ccc(NC(=O)Cc2ccc(Cl)cc2)cc1)(C(C)C)n1ccnc1 [Compound 763] | >5.00 mg/kg | 5.62 nM |  | 
16 | CC(C)C(c1ccc(NC(=S)Cc2ccc(Cl)cc2)cc1)n1ccnc1 (stereo not shown) [Compound 764, 4-chloro-N-[4-[1-(1H-imidazol-1-yl)-2-methylpropyl]phenyl]benzenethane-thioamide] |  |  | > 5 mg/kg | 23.3 nM
17 | Cc1nccn1C(c1ccc(NC(=O)Nc2cccc(F)c2)cc1)C(C)C (stereo not shown) [Compound 773] | >10.00 mg/kg | > 100 nM |  | 
18 | O=C(Cc1ccc(Cl)cc1)Nc1ccc(C2(n3ccnc3)CCC2)cc1 [Compound 774] | 10.00 mg/kg | 5.27 nM |  | 
19 | CC(=O)Nc1ccc(C2(n3ccnc3)CCCCC2)cc1 [Compound 776] | >20.00 mg/kg | 4.39 nM |  | 
20 | CCC(CC)C(c1ccc(NC(=O)c2nc3ccccc3s2)cc1)n1ccnc1.O=C(O)C(=O)O (stereo not shown) [Compound 778] | 5.00 mg/kg | 75.9 nM |  | 

— patent US7179825B2, “Retinoic acid mimetic anilides” (Janssen Pharmaceutica N.V., priority 1997, dated 2007)
